Assay results from patent US12310364B2, “Safened compositions comprising pyridine carboxylate herbicides and cloquintocet” (Corteva Agriscience LLC, priority 2018, dated 2025).
Where “and” joins values, the source holds several entries; their conditions need not be identical. Identical values can stand only once.

Key:
Format in all cases: in vivo
[1] = system: Triticum aestivum (spring wheat), TRZAS; assay: Greenhouse postemergence safening trial, visual injury on spring wheat
Procedure: (§1) Greenhouse Trial Methodology-Evaluation of Postemergence Herbicidal […] in Crops […] When required to ensure good germination and healthy plants, a fungicide treatment and/or other chemical or physical treatment was applied. The plants were grown for 7-36 days (d) in a greenhouse with an approximate 14-hour (h) photoperiod which was maintained at about 23° C. during the day and 22° C. during the night. Nutrients and water were added on a regular basis and supplemental lighting was provided with overhead metal halide 1000-Watt lamps as necessary. The plants were employed for testing when they reached the second or third true leaf stage. Emulsifiable concentrates of each of each pyridine carboxylate herbicide (Compound A or Compound B) were prepared at 100 grams acid equivalent per liter (g ae/L). […] The concentrated stock solutions were further diluted with an aqueous mixture of 1.25% […] or MSO® Concentrate with LECI-TECH® to obtain stock solutions at reduced application rates for each herbicide. Spray solutions of the herbicide combinations (Compound A or Compound B plus safener) were prepared by adding weighed amounts or aliquots of the safener to the stock solutions of Compound A or Compound B to form 12-mL spray solutions in two-way combinations. […] Control plants were sprayed in the same manner with the solvent blank. All herbicide (component a) application rates are given as “g ae/ha” and all safener (component b) application rates are given as “g ai/ha.” The treated plants and control plants were placed in a greenhouse as described above and watered by sub-irrigation to prevent wash-off of the test compounds.

[2] = system: Anthemis arvensis (field chamomile), ANTAR; assay: Greenhouse postemergence trial, visual injury on field chamomile
Source text: (§2) Greenhouse Trial Methodology—Evaluation of Postemergence Herbicidal Safening in Crops
(§3) Seeds of the desired test plant species were planted in a 90:10% v/v (volume/volume) mixture of PRO-MIX® BX (Premier Tech Horticulture, Quakertown, PA, USA) and PROFILE® GREENS GRADE™ (Profile Products LLC, Buffalo Grove, IL, USA) planting mixture, which typically has a pH of 5.2 to 6.2 and an organic matter content of at least 50 percent, in plastic pots with a surface area of 103.2 square centimeters (cm^2). When required to ensure good germination and healthy plants, a fungicide treatment and/or other chemical or physical treatment was applied. The plants were grown for 7-36 days (d) in a greenhouse with an approximate 14-hour (h) photoperiod which was maintained at about 23° C. during the day and 22° C. during the night. Nutrients and water were added on a regular basis and supplemental lighting was provided with overhead metal halide 1000-Watt lamps as necessary. The plants were employed for testing when they reached the second or third true leaf stage.
(§4) Emulsifiable concentrates of each of each pyridine carboxylate herbicide (Compound A or Compound B) were prepared at 100 grams acid equivalent per liter (g ae/L). An aliquot of each emulsifiable concentrate was placed in a 25 mL glass vial and diluted with an aqueous mixture of 1.25% (v/v) ACTIROB® B esterified rapeseed oil (Bayer Crop Science, Research Triangle Park, NC, USA) or MSO® Concentrate with LECI-TECH® methylated soybean oil (Loveland Products, Loveland, CO, USA) to obtain concentrated stock solutions at the highest application rate for each herbicide, based upon a 12 milliliter (mL) application volume at a rate of 187 liters per hectare (L/ha). The concentrated stock solutions were further diluted with an aqueous mixture of 1.25% v/v ACTIROB® B or MSO® Concentrate with LECI-TECH® to obtain stock solutions at reduced application rates for each herbicide. Spray solutions of the herbicide combinations (Compound A or Compound B plus safener) were prepared by adding weighed amounts or aliquots of the safener to the stock solutions of Compound A or Compound B to form 12-mL spray solutions in two-way combinations.
(§5) The spray solutions were applied to the plant material with an overhead Mandel track sprayer equipped with 8002E nozzles calibrated to deliver 187 L/ha over an application area of 0.503 square meters (m^2) at a spray height of 18 inches (43 centimeters (cm)) above the average plant canopy. Control plants were sprayed in the same manner with the solvent blank. All herbicide (component a) application rates are given as “g ae/ha” and all safener (component b) application rates are given as “g ai/ha.”
(§6) The treated plants and control plants were placed in a greenhouse as described above and watered by sub-irrigation to prevent wash-off of the test compounds. After 20-22 d, the condition of the test plants as compared with that of the control plants was determined visually and scored on a scale of 0 to 100 percent where 0 corresponds to no injury and 100 corresponds to complete kill.

[3] = system: Salsola kali (Russian thistle), SASKR; assay: Greenhouse postemergence trial, visual injury on Russian thistle
Procedure: as §1

maize (ZEAMX) = assay: Greenhouse postemergence safening trial, visual injury on maize
Source text: as §2, §3, §4, §5, §6

[4] = system: nutsedge (CYPES, Cyperus esculentus); assay: Greenhouse postemergence trial, visual injury on nutsedge
Source text: as §2, §3, §4, §5, §6

[5] = system: wild oat (AVEFA, Avena fatua); assay: Greenhouse postemergence trial, visual injury on wild oat; conditions: Table 19
Source text: as §2, §3
as §4, with “combinations. […]” for “combinations.”
as §6

[6] = system: Canada thistle (CIRAR, Cirsium arvense); assay: Greenhouse postemergence trial, visual injury on Canada thistle; conditions: Table 19
Source text: as §2, §3
as §4, with “combinations. […]” for “combinations.”
as §6

[7] = system: large crabgrass (DIGSA, Digitaria sanguinalis); assay: Greenhouse postemergence trial, visual injury on large crabgrass; conditions: Table 19
Source text: as §2, §3
as §4, with “combinations. […]” for “combinations.”
as §6

[8] = system: soybean (GLXMA, Glycine max); assay: Greenhouse postemergence trial, visual injury on soybean; conditions: Table 19
Source text: as §2, §3
as §4, with “combinations. […]” for “combinations.”
as §6

[9] = system: Chinese sprangletop (LEFCH, Leptochloa chinensis); assay: Greenhouse postemergence trial, visual injury on Chinese sprangletop; conditions: Table 19
Source text: as §2, §3
as §4, with “combinations. […]” for “combinations.”
as §6

[10] = system: giant foxtail (SETFA, Setaria faberi); assay: Greenhouse postemergence trial, visual injury on giant foxtail; conditions: Table 19
Source text: as §2, §3
as §4, with “combinations. […]” for “combinations.”
as §6

[11] = system: Johnson grass (SORHA, Sorghum halepense); assay: Greenhouse postemergence trial, visual injury on Johnson grass; conditions: Table 19
Source text: as §2, §3
as §4, with “combinations. […]” for “combinations.”
as §6

[12] = CQC-mexyl 5 g/ha alone, Table 15
[13] = CQC-mexyl 10 g/ha alone, Table 15
[14] = CQC-mexyl 20 g/ha alone, Table 15
[15] = CQC-mexyl 40 g/ha alone, Table 15
[16] = CQC-mexyl 20 g/ha alone, Table 17
[17] = CQC-mexyl 20 g/ha alone, Table 19
[18] = CQC-mexyl 40 g/ha alone, Table 17
[19] = CQC-mexyl 40 g/ha alone, Table 19
[20] = CQC-mexyl 80 g/ha alone, Table 17
[21] = CQC-mexyl 80 g/ha alone, Table 19
[22] = CQC-mexyl 120 g/ha alone, Table 17
[23] = Compound A 20 g/ha alone, Table 15
[24] = Compound A 20 g/ha alone, Table 19
[25] = Compound A 40 g/ha alone, Table 17
[26] = Compound A 40 g/ha alone, Table 18

In the case of `CCCCCC(C)OC(=O)COc1ccc(Cl)c2cccnc12` (centres unmarked) [CQC-mexyl, cloquintocet-mexyl], the “% visual injury, Ob” value [1, 12] is reported as 0%, the “% visual injury, Ob” value [1, 13] is reported as 0% and the “% visual injury, Ob” value ([1]; CQC-mexyl 10 g/ha alone, Table 16) is reported as 0%. The “% visual injury, Ob” value [1, 14] was 0%, the “% visual injury, Ob” value ([1]; CQC-mexyl 20 g/ha alone, Table 16) was 0% and the “% visual injury, Ob” value ([1]; CQC-mexyl 40 g/ha alone, Table 14) was 0%. For the same compound, the “% visual injury, Ob” value [1, 15] was 0%, the “% visual injury, Ob” value ([1]; CQC-mexyl 40 g/ha alone, Table 16) was 0% and the “% visual injury, Ob” value ([1]; CQC-mexyl 80 g/ha alone, Table 16) was 0%. The “% visual injury, Ob” value ([1]; safener alone 5 g/ha) was 0%, the “% visual injury, Ob” value ([1]; safener alone 10 g/ha) was 0% and the “% visual injury, Ob” value ([1]; safener alone 20 g/ha) was 0%. For the same compound, the “% visual injury, Ob” value ([1]; safener alone 40 g/ha) was 0%, the “% visual injury, Ob” value [2, 12] was 0% and the “% visual injury, Ob” value [2, 13] was 0%. The “% visual injury, Ob” value [2, 14] was 0%, the “% visual injury, Ob” value [2, 15] was 0% and the “% visual injury, Ob” value ([3]; safener alone 5 g/ha) was 0%. The “% visual injury, Ob” value ([3]; safener alone 10 g/ha) was 0%, the “% visual injury, Ob” value ([3]; safener alone 20 g/ha) was 0% and the “% visual injury, Ob” value ([3]; safener alone 40 g/ha) was 0%. The “% visual injury, Ob” value (maize (ZEAMX); [16]) was 0%, the “% visual injury, Ob” value (maize (ZEAMX); [17]) was 0% and the “% visual injury, Ob” value (maize (ZEAMX); [18]) was 0%. The “% visual injury, Ob” value (maize (ZEAMX); [19]) was 0%, the “% visual injury, Ob” value (maize (ZEAMX); [20]) was 0% and the “% visual injury, Ob” value (maize (ZEAMX); [21]) was 0%. For the same compound, the “% visual injury, Ob” value (maize (ZEAMX); [22]) was 0%, the “% visual injury, Ob” value [4, 16] was 0% and the “% visual injury, Ob” value [4, 17] was 0%. For the same compound, the “% visual injury, Ob” value [4, 18] was 0%, the “% visual injury, Ob” value [4, 19] was 0% and the “% visual injury, Ob” value [4, 20] was 0%. For the same compound, the “% visual injury, Ob” value [4, 21] was 0%, the “% visual injury, Ob” value [4, 22] was 0% and the “% visual injury, Ob” value ([5]; CQC-mexyl 20 g/ha alone) was 0%. For the same compound, the “% visual injury, Ob” value ([5]; CQC-mexyl 40 g/ha alone) was 0%, the “% visual injury, Ob” value ([5]; CQC-mexyl 80 g/ha alone) was 0% and the “% visual injury, Ob” value ([6]; CQC-mexyl 20 g/ha alone) was 0%. For the same compound, the “% visual injury, Ob” value ([6]; CQC-mexyl 40 g/ha alone) was 0%, the “% visual injury, Ob” value ([6]; CQC-mexyl 80 g/ha alone) was 0% and the “% visual injury, Ob” value ([7]; CQC-mexyl 20 g/ha alone) was 0%. The “% visual injury, Ob” value ([7]; CQC-mexyl 40 g/ha alone) was 0%, the “% visual injury, Ob” value ([7]; CQC-mexyl 80 g/ha alone) was 0% and the “% visual injury, Ob” value ([8]; CQC-mexyl 20 g/ha alone) was 0%. For the same compound, the “% visual injury, Ob” value ([8]; CQC-mexyl 40 g/ha alone) was 0%, the “% visual injury, Ob” value ([8]; CQC-mexyl 80 g/ha alone) was 0% and the “% visual injury, Ob” value ([9]; CQC-mexyl 20 g/ha alone) was 0%. For the same compound, the “% visual injury, Ob” value ([9]; CQC-mexyl 40 g/ha alone) was 0%, the “% visual injury, Ob” value ([9]; CQC-mexyl 80 g/ha alone) was 0% and the “% visual injury, Ob” value ([10]; CQC-mexyl 20 g/ha alone) was 0%. The “% visual injury, Ob” value ([10]; CQC-mexyl 40 g/ha alone) was 0%, the “% visual injury, Ob” value ([10]; CQC-mexyl 80 g/ha alone) was 0% and the “% visual injury, Ob” value ([11]; CQC-mexyl 20 g/ha alone) was 0%. For the same compound, the “% visual injury, Ob” value ([11]; CQC-mexyl 40 g/ha alone) was 0% and the “% visual injury, Ob” value ([11]; CQC-mexyl 80 g/ha alone) was 0%.

In the case of `N#CCOC(=O)c1nc(-c2ccc3cc[nH]c3c2F)c(F)c(N)c1Cl` [Compound A, cyanomethyl 4-amino-3-chloro-5-fluoro-6-(7-fluoro-1H-indol-6-yl)pyridine-2-carboxylate], the “% visual injury, Ob” value [1, 23] is reported as 15%, the “% visual injury, Ob” value ([1]; Compound A 40 g/ha alone, Table 14) is reported as 45% and the “% visual injury, Ob” value ([1]; Compound A 40 g/ha alone, Table 16) is reported as 40%. The “% visual injury, Ob” value ([1]; herbicide alone 20 g/ha) was 15% and 25%, the “% visual injury, Ob” value ([1]; herbicide alone 40 g/ha) was 45% and 40% and 23% and the “% visual injury, Ob” value [2, 23] was 95%. For the same compound, the “% visual injury, Ob” value ([2]; herbicide alone 20 g/ha) was 95%, the “% visual injury, Ob” value ([3]; herbicide alone 20 g/ha) was 60% and the “% visual injury, Ob” value (maize (ZEAMX); [24]) was 13%. The “% visual injury, Ob” value (maize (ZEAMX); [25]) was 55%, the “% visual injury, Ob” value (maize (ZEAMX); [26]) was 55% and the “% visual injury, Ob” value [4, 24] was 30%. The “% visual injury, Ob” value [4, 25] was 73%, the “% visual injury, Ob” value [4, 26] was 73% and the “% visual injury, Ob” value ([5]; Compound A 20 g/ha alone) was 0%. The “% visual injury, Ob” value ([6]; Compound A 20 g/ha alone) was 95%, the “% visual injury, Ob” value ([7]; Compound A 20 g/ha alone) was 30% and the “% visual injury, Ob” value ([8]; Compound A 20 g/ha alone) was 100%. For the same compound, the “% visual injury, Ob” value ([9]; Compound A 20 g/ha alone) was 60%, the “% visual injury, Ob” value ([10]; Compound A 20 g/ha alone) was 65% and the “% visual injury, Ob” value ([11]; Compound A 20 g/ha alone) was 0%.
